Test [1] concerns S. aureus, UC 9213. In words: In vivo antimicrobial activity, Murine Assay procedure. On the set-up: species or system Staphylococcus aureus (infected female mice). The note with it: S. aureus UC 9213, female mice, oral or subcutaneous. Here is the method: Antimicrobial activity was tested in vivo using the Murine Assay procedure. Groups of female mice (six mice of 18-20 grams each) were injected intraperitoneally with bacteria which were thawed just prior to use and suspended in brain heart infusion with 4% brewers yeast UC9213 (Staphylococcus aureus) or brain heart infusion (Streptococcus species). Antibiotic treatment at six dose levels per drug was administered one hour and five hours after infection by either oral intubation or subcutaneous ("subcut.") routes. Survival was observed daily for six days. ED50 values based on mortality ratios were calculated using probit analysis. The subject compounds were compared against a well-known antimicrobial (Vancomycin) as a control.

The test system of a further test is S. pneumoniae, UC 9912. The experiment in a line: In vitro activity: minimum inhibitory concentration (MIC) by agar dilution, S. pneumoniae. The format is cell-based. To be noted: Streptococcus pneumoniae, UC9912, read-out: Minimum Inhibitory Concentration, S. pneumoniae, UC 9912. The text has this: (§1) The oxazolidinone antibacterial agents of this invention have useful activity against a variety of organisms. The in vitro activity of compounds of this invention can be assessed by standard testing procedures such as the determination of minimum inhibitory concentration (MIC) by agar dilution as desribed in "Methods for Dilution Antimicrobial Susceptibility Tests for Bacteria That Grow Aerobically" (MFT) published January 1983 by the National Committee for Clinical Laboratory Standards, 771 East Lancaster Avenue, Villanova, Pa. 19084, USA. The activity of selected compounds of this invention against Staphylococcus aureus and Streptococcus pneumoniae are shown in Table 1.

Test [2] has as its system S. aureus, UC 9213. The experiment in a line: In vitro activity: minimum inhibitory concentration (MIC) by agar dilution, S. aureus. The format is cell-based. The note with it: Staphylococcus aureus, UC9213, read-out: Minimum Inhibitory Concentration, S. aureus, UC 9213.
Excerpt: as §1
(In agar dilution, organisms are placed on agar that contains the substance at set levels.)

SMILES strings stand for the structures. ≈ marks a conversion by molar mass, not a printed value. Where “and” joins values, the source holds several entries; their conditions need not be identical. Equal values may be shown once.

By ED50 is commonly meant the dose that gives a 50% effect, or the effect in half of the subjects.

For `CN[C@H](CC(C)C)C(=O)N[C@H]1C(=O)N[C@@H](CC(N)=O)C(=O)N[C@H]2C(=O)N[C@H]3C(=O)N[C@H](C(=O)N[C@H](C(=O)O)c4cc(O)cc(O)c4-c4cc3ccc4O)[C@H](O)c3ccc(c(Cl)c3)Oc3cc2cc(c3O[C@@H]2O[C@H](CO)[C@@H](O)[C@H](O)[C@H]2O[C@H]2C[C@](C)(N)[C@H](O)[C@H](C)O2)Oc2ccc(cc2Cl)[C@H]1O` [Vancomycin, reference compound], the ED50 with S. aureus, UC 9213 [1] (Staphylococcus aureus, UC9213, 144 h, read-out: Control, ED50, control drug run alongside each test compound) was 2.2 mg/kg. Also, the “Control, ED50” value in the test on S. aureus, UC 9213 [1] (control drug run alongside each test compound, 8640 min) was 2.4 mg/kg and 2.0 mg/kg and 1.2 mg/kg. The MIC in the test with S. pneumoniae, UC 9912 came to 0.5 mg/L (≈ 0.345 µM); with S. aureus, UC 9213 [2] it was 1 mg/L (≈ 0.69 µM).

For the origin of these results see US5910504A, “Hetero-aromatic ring substituted phenyloxazolidinone antimicrobials” (Pharmacia & Upjohn, priority 1997, dated 1999).
